Experimental data taken from US20040204497A1, “Metabolic enhancing properties of octopamine salts” (Creative Compounds, LLC, priority 2003, published 2004).
Where a name gives a salt, the structure may show the parent alone. Values belong to the molecule of their own block, whether it stands above or below them.

Key:
[1] = Example 1: weight loss in subjects given capsules, no change of diet or exercise; type: in vivo, human; design: average weight loss: unit not given here; settings: 6 mg/kg per day calculated as octopamine base; for average weight loss: capsules, divided dosages
Procedure: Octopamine base, octopamine HCl, octopamine malate, and octopamine ethylcarbonate were prepared and given as capsules in divided dosages at 6 mg/kg per day calculated as octopamine base.

[2] = Example 2: change in percent bodyfat and lean body mass, perceived energy and mental outlook in subjects; type: in vivo, human; settings: for Change Percent Bodyfat / Change Percent Lean Body Mass: 6 mg/kg per day calculated as octopamine base; for Perceived Energy / Perceived Mental Outlook and Focus: subjective, scale of 1-10, 6 mg/kg per day
Procedure: Octopamine HCl was prepared and given as capsules in divided dosages at 6 mg/kg per day calculated as octopamine base. […] Subjective results are also shown regarding perceived energy and mental outlook and focus (scale of 1-10): […]

[3] = Stability of octopamine forms exposed to the atmosphere (in-house results); type: physicochemical; settings: normal atmospheric conditions; according to our calculations
Description: First, we have discovered that octopamine in the base form is very unstable and oxidizes rapidly when readily exposed to the atmosphere.
For instance, although the half-life of octopamine base is roughly 6 months, the half-life for octopamine salts of this invention such as octopamine HCl is at least 5 years according to our calculations. To be used commercially for metabolic enhancement, it is of extreme importance that the octopamine form used has a shelf life long enough so that the octopamine remains filly efficacious for at least one year and preferably two years.

[4] = Metabolic potency, bioavailability and tolerability of octopamine salts versus base in users; type: in vivo, human
Description: Finally, we have discovered that the base form of octopamine has significant bioavailability problems. […] There is thus great need for an improvement to this technology which allows octopamine to be a commercially viable option for metabolic enhancement.
We have found the octopamine salts of this invention are up to four times more efficient at affecting specific metabolic parameters than octopamine base.
The octopamine salts of this invention can be commercially used in various ways as metabolic enhancers. For instance, we have found usefulness with these compounds as weight loss agents. […] Even in high dosages, the user feels no noticeable negative effect on his general feeling or overall state of well-being. Furthermore, these octopamine salts specifically enhance the loss of adipose tissue while preserving lean body mass such as muscle tissue. A significant problem for anyone trying to lose unwanted adipose tissue is the concurrent loss of lean body mass. Lean body mass includes tissues such as muscle, kidney, liver, heart and bone. For a person to feel healthy and strong, these tissues must also be healthy and strong. […]
Human dosaging for the octopamine salts of this invention is most preferable in the range of 5-15 mg/kg of bodyweight calculated as base octopamine. […]

- half-life [3]: ≥ 1830 days
Molecule: NCC(O)c1ccc(O)cc1 (stereo not drawn) [Octopamine HCl]
- average weight loss ([1]; Week 1, HCl, 6 mg/kg/day): 2
- average weight loss ([1]; Week 4, HCl, 6 mg/kg/day): 6
- average weight loss ([1]; Week 8, HCl, 6 mg/kg/day): 9
- Change Percent Bodyfat ([2]; Week 1): −.5%
- Change Percent Lean Body Mass ([2]; Week 1): 0%
- Perceived Energy ([2]; Week 1): 6
- Perceived Mental Outlook and Focus ([2]; Week 1): 7
- Change Percent Bodyfat ([2]; Week 4): −2%
- Change Percent Lean Body Mass ([2]; Week 4): +.3%
- Perceived Energy ([2]; Week 4): 8
- Perceived Mental Outlook and Focus ([2]; Week 4): 7
- Change Percent Bodyfat ([2]; Week 8): −4%
- Change Percent Lean Body Mass ([2]; Week 8): +1%
- Perceived Energy ([2]; Week 8): 8
- Perceived Mental Outlook and Focus ([2]; Week 8): 9

Molecule: NCC(O)c1ccc(O)cc1 (stereo not drawn) [Octopamine base, Octopamine]
- weight loss (result in words) ([1]; up to Week 8): neither the octopamine base nor the control resulted in appreciable or significant weight loss
- average weight loss ([1]; Week 1, 6 mg/kg/day): 0
- average weight loss ([1]; Week 4, 6 mg/kg/day): 1
- average weight loss ([1]; Week 8, 6 mg/kg/day): 2
- minimum effective dosage relative to the octopamine salts of the invention [4]: nearly four times

Molecule: Octopamine ethylcarbonate
- average weight loss ([1]; Week 1): 2
- average weight loss ([1]; Week 4): 6
- average weight loss ([1]; Week 8): 10

Molecule: Octopamine malate
- average weight loss ([1]; Week 1): 1
- average weight loss ([1]; Week 4): 5
- average weight loss ([1]; Week 8): 10
